Molecules are shown by their SMILES.

This is an account of results in patent US20220233503A1, “METHODS OF TREATING SEPSIS WITH SYNAPTIC VESICLE 2A AND/OR 2B BINDING CHEMICAL ENTITIES” (INSTITUT PASTEUR, priority 2016, published 2022).

The test system of assay [1] is murine primary monocytic cells. Description: Nitric Oxide production in primary monocytic cells exposed to LPS. The format is cell-based. Particulars: activated murine monocytic cells, LPS 10 μg/mL, cell culture supernatant, dose effect relationship. The protocol:
LPS exposure increased NO production at a dose of 10 μg/mL after 24 exposure in cell culture supernatant.

In a further assay the test system is CLP mice. Description: Open field test after sepsis. The format is in vivo. Particulars: septic mice, 10 days after sepsis, vs saline. The protocol:
[…] The experimentator was blinded to the experimental group.
Open Field Mice were placed 45 minutes before being held in the experimental room. Single mice were then placed in a squared 40 cm box in an experimental room and captured with a camera during 10 minutes. Mice were tracked using Ethovision XT and their tail, nose and barycenter was marked. The total length walked, the ratio of time spent moving/non moving, the maximum velocity and the mean distance from barycenter to arena's center were recorded. Datas are presented as Mean±SEM.
Datas are presented as mean±SEM. Sepsis presented a persisting effect on locomotor functions:sepsis lowered the distance traveled (E, p<0.05), increased the time spent not moving (F, p<0.05) and the mean distance to center (G, p<0.05) compared to control mice.

For the compound `CC[C@@H](C(N)=O)N1CCCC1=O` (single isomer, unassigned) [levetiracetam], in assay [1], the “production of Nitric Oxide” value was “reduced”. In the assay with CLP mice, the “open field distance traveled (sepsis-associated lowering)” value is “did not influenced” and the “open field time spent not moving” value is recorded as “did not influenced”. Moreover, in the assay on CLP mice (p=0.043 Mann-Whitney), the “open field mean distance to center” value was “decreased”.
